Entries after “also recorded” stand apart in the source; their conditions may differ. Structures can show the parent of a compound that is named as a salt.
Legend:
mice [1] = test: four plate test, traction and electric shock; assay type: in vivo, mouse; conditions: i.p., strong/high dose
Method: The test is performed on groups of 10 mice 30 minutes after the administration of CRL 41 224.

mice [2] = test: motility reduced by habituation to the enclosure; assay type: in vivo, mouse; conditions: i.p.
Method: After they have stayed in the actimeters for 18 hours, the mice (6 per dose, 12 control animals) receive CRL 41 224. They are immediately returned to their respective enclosures and, half an hour later, their motility is recorded for 30 minutes.

mice [3] = test: interaction with reserpine; assay type: in vivo, mouse; conditions: i.p.
Method: Four hours after the intraperitoneal injection of 2.5 mg/kg of reserpine, groups of 6 mice receive CRL 41 224.

mice [4] = test: asphyxiant anoxia (gallamine triiodoethylate); assay type: in vivo, mouse; conditions: i.p., high dose
Method: Groups of 10 mice receive CRL 41 224 half an hour before the intraperitoneal administration of 32 mg/kg of gallamine triiodoethylate (reference curarizing agent).

rats [5] = test: overall behavior and reactivities in rats; assay type: in vivo, rat; conditions: i.p., dose not stated
Method: (§1) Groups of three animals are observed before and then 0.25 hour, 0.50 hour, 1 hour, 2 hours, 3 hours and 24 hours after the administration of CRL 41 224.

rats [6] = test: interaction with apomorphine in rats; assay type: in vivo, rat; conditions: i.p., dose not stated
Method: CRL 41 224 is administered to groups of 6 rats 0.5 hour before the subcutaneous injection of 0.5 mg/kg of apomorphine.

immunological properties = test: immunological properties, overall; assay type: in vivo; conditions: dose not stated
Source text: The present 1-(acetylaminophenyl)-2-aminopropanone derivatives are useful in therapy. They all act on the CNS, more precisely as antidepressants. They have a stimulant or excitant component in their neuropsychopharmacological profile.

[7] = tested on: peripheral α-adrenergic stimulation; test: signs of peripheral adrenergic stimulation; assay type: in vivo, mouse; rat; conditions: i.p.; dose not stated
Method: as §1

male mice [8] = test: acute toxicity, intraperitoneal (lethal doses); assay type: in vivo, mouse; conditions: i.p.
Method: By intraperitoneal administration to male mice, the LD-30 (lethal dose for 30% of the animals tested) is of the order of 128 mg/kg and the LD-50 is of the order of about 200 mg/kg.

mice [9] = test: motility reduced by hypoxic aggression; assay type: in vivo, mouse; conditions: i.p., dose not stated
Method: Half an hour after they have received CRL 41 224, the mice (10 per dose, 20 control animals) are subjected to acute hypobaric anoxia [pressure reduction of 600 mm Hg (i.e. about 8×10^4 Pa) in 90 seconds; release of vacuum in 45 seconds] and are then placed in an actimeter, where their motility is recorded for 10 minutes.

mice [10] = test: action on the spontaneous motility (actimeter); assay type: in vivo, mouse; conditions: mice, i.p.; dose not stated
Method: 0.5 hour after they have received CRL 41 224, the mice (6 per dose, 12 control animals) are placed in an actimeter, where their motility is recorded for 30 minutes.

CNS = test: overall neuropsychopharmacological (CNS) profile; assay type: in vivo, mouse; rat; conditions: i.p.
Method: The neuropsychopharmacological study of CRL 41 219 was carried out as indicated above for CRL 41 224.
The neuropsychopharmacological study of CRL 41 220 was carried out in accordance with the procedures given above for CRL 41 224.

mice [11] = test: interaction with barbital; assay type: in vivo, mouse; conditions: i.p.
Method: Half an hour after the administration of CRL 41 224, groups of 10 mice receive an intraperitoneal injection of barbital (220 mg/kg).

rats [12] = test: interaction with amphetamine; assay type: in vivo, rat; conditions: rats, i.p.; dose not stated
Method: Amphetamine (2 mg/kg) is injected intraperitoneally into groups of 6 rats 30 minutes after the administration of CRL 41 224.

mice [13] = test: interaction with apomorphine in mice; assay type: in vivo, mouse; conditions: i.p.
Method: Groups of 6 mice receive CRL 41 224 0.5 hour before the subcutaneous injection of 1 or 16 mg/kg of apomorphine.

mice [14] = test: interaction with oxotremorine; assay type: in vivo, mouse; conditions: i.p.
Method: CRL 41 224 is administered to groups of 6 mice 0.5 hour before the intraperitoneal injection of 0.5 mg/kg of oxotremorine.

mice [15] = test: overall behavior and reactivities in mice; assay type: in vivo, mouse; conditions: mice, i.p.; dose not stated
Method: as §1

mice [16] = test: action on the behavioral despair; assay type: in vivo, mouse; conditions: i.p., dose not stated
Source text: Half an hour after they have received CRL 41 224, groups of 6 mice are placed in a beaker filled with water to a height of 6 cm. The total period of immobility between the 2nd and 6th minutes following immersion is noted.

[17] = tested on: spleen cells expressing a direct IgM antibody response; test: test for cells forming lysis areas (PFC IgM, Cunningham); assay type: in vivo, mouse; conditions: oral; for activity index I / counts ± e.s.m. (lysis areas per spleen): mice
Method: Immunological assays were carried out in order to point out the interest of CRL 41 240 as an immunomodulating agent. Specifically, the test used was the so-called test for cells forming lysis areas, described by A. J. […] et al. ("Further improvements in the plaque technique for detecting simple antibody forming cells"), Immunology 14, pages 599-601 (1968).
The test for cells forming lysis areas (or PFC IgM) explores the humoral immunity. Four days after immunization with a T-dependent antigen (in this case red blood corpuscles of sheep), the spleen cells expressing a direct IgM antibody response are counted. The mice used for this purpose are conventional female OF1 mice devoid of specific pathogenic organisms, weighing from 20 to 30 g and divided up into a control group of 14 animals and groups each containing 7 animals per dose and per product to be studied, administered orally on the same day as the antigen. An activity index I is calculated for each dose of product according to the following equation: [formula]
This test is performed at least twice for each dose of test product [C(control amimals), 0.01, 0.1, 10 and 100 mg/kg] and a statistical study is undertaken using the Student t test after variance analysis on the number of lyses per spleen.

[18] = tested on: spleen cells expressing a direct IgM antibody response; test: as above; assay type: in vivo, mouse; conditions: 1 mg/kg
[19] = tested on: delayed hypersensitivity to the red blood corpuscles of sheep; test: delayed hypersensitivity to the red blood corpuscles of sheep (Miller); assay type: in vivo; conditions: oral, 10 to 100 mg/kg
male mice [20] = test: interaction with proadifen: motility; assay type: in vivo, mouse; conditions: i.p., administered alone
Method: (§2) Two series of experiments were carried out. In the first one, male mice (12 per dose, 12 control animals) were administered per I.P. route (i) with proadifen (75 mg/kg) at T-3 h, then (ii) with CRL 41 152 at T-0.5 h. At T=0 the mice were placed in actimeters, where their motility was recoded for 0.5 h. In the second one male mice (12 per dose, 12 control animals) were administered with proadifen and CRL 41 152 as indicated hereinabove, then subcutaneously with apomorphine (16 mg/kg) at T=0 in order to appreciate the potential variation of the hypothermia induced by apomorphine.
(§3) In these two series CRL 41 152, in solution in distilled water, was administered per I.P. route to male mice in a volume of 20 ml/kg.

male mice [21] = test: interaction with proadifen: hypothermia induced by apomorphine; assay type: in vivo, mouse
Method: as §2, §3

For `CC(=O)Nc1ccc(C(=O)C(C)N2CCCCC2)cc1` (stereo not shown) [CRL 41 240, 1-(4-acetylaminophenyl)-2-piperidinopropanone hydrochloride], the “convulsant effects of electric shock” value (mice [1]) was “antagonism of the convulsant effects of electric shock”, the “motor activity after habituation to the enclosure” value (mice [2]; dose not stated) was “resumption in the activity of mice accustomed to their enclosure” and the “hypothermia induced by reserpine” value (mice [3]; dose not stated) was “antagonism of the hypothermia induced by apomorphine, reserpine”. The “ptosis induced by reserpine” value (mice [3]; dose not stated) was “antagonism of the ptosis induced by reserpine”, the “time taken for asphyxiant convulsions (and death) to occur” value (mice [4]) was “increase in the time taken for asphyxiant convulsions to occur” and the excitation in rats (rats [5]) was “excitation in mice and rats”. For the same compound, the “stereotype movements in rats” value (rats [5]) was “presence of stereotype movements”, the “stereotypies induced by apomorphine” value (rats [6]) was “potentiation of the stereotypies induced by apomorphine” and the “immunological properties, overall” value (immunological properties) was “beneficial immunomodulating effects”. The exophthalmos [7] was “exophthalmos”, the mydriasis [7] was “mydriasis” and the “peripheral adrenergic stimulation, overall” value [7] was “peripheral α-adrenergic stimulation”. For the same compound, the “LD-0 (maximum non-lethal dose)” value (male mice [8]) was “greater than 256 mg/kg”, the “motor recovery after hypoxic aggression” value (mice [9]) was “improvement in the motor recovery” and the “spontaneous motility / motor activity” value (mice [10]) was “increase in the motor activity”. For the same compound, the “overall action on the CNS” value (CNS; mice and rats, dose not stated) was “behaves as an antidepressant and stimulant for the CNS”, the “sleep induced by barbital” value (mice [11]; dose not stated) was “very distinct antagonism of the sleep induced by barbital” and the “stereotypies induced by amphetamine” value (rats [12]) was “potentiation of the stereotypies induced by apomorphine and amphetamine”. For the same compound, the “hypothermia induced by apomorphine” value (mice [13]; dose not stated) was “antagonism of the hypothermia induced by apomorphine”, the “hypothermia induced by oxotremorine” value (mice [14]; dose not stated) was “antagonism of the hypothermia induced by apomorphine, reserpine and oxotremorine” and the excitation in mice (mice [15]) was “excitation in mice”. The “stereotype movements in mice” value (mice [15]) was “presence of stereotype movements”, the “period of immobility or "despair"” value (mice [16]) was “reduction in the period of immobility” and the minimal effective dose ([17]; Mus musculus, female OF1 mice, read-out: lowest immunologically active dose) was 0.1 mg/kg. The “activity index I” value ([17]; 0.01 mg/kg) was 1.23, the “counts ± e.s.m. (lysis areas per spleen)” value ([17]; 0.01 mg/kg) was 64.5 ± 11.99 m.10^3 /rate and the “activity index I” value ([17]; 0.1 mg/kg) was 1.25. The “counts ± e.s.m. (lysis areas per spleen)” value ([17]; 0.1 mg/kg) was 65.7 ± 11.60 m.10^3 /rate, the “activity index I” value ([17]; 10 mg/kg) was 1.52 and the “counts ± e.s.m. (lysis areas per spleen)” value ([17]; 10 mg/kg) was 79.4 ± 11.54 m.10^3 /rate. For the same compound, the “activity index I” value ([17]; 100 mg/kg) was 1.31, the “counts ± e.s.m. (lysis areas per spleen)” value ([17]; 100 mg/kg) was 68.8 ± 7.21 m.10^3 /rate and the “activity index I” value ([18]; mice, oral) was 1.65. For the same compound, the “counts ± e.s.m. (lysis areas per spleen)” value ([18]; mice, oral) was 86.5 ± 13.74 m.10^3 /rate.
With `CC(=O)Nc1cccc(C(=O)C(C)NC(C)C)c1` (stereo not shown) [CRL 41 254] the “motor activity after habituation to the enclosure” value (mice [2]; strong doses) was “a moderate resumption in the motor activity of mice accustomed to their enclosure”, the “hypothermia induced by reserpine” value (mice [3]; strong doses) was “no antagonism of the hypothermia induced by reserpine” and the “immunological properties, overall” value (immunological properties) was “beneficial immunomodulating effects”. For the same compound, the “LD-0 (maximum non-lethal dose)” value (male mice [8]) was “greater than 256 mg/kg”, the LD-100 (male mice [8]) was “less than or equal to 512 mg/kg” and the “overall action on the CNS” value (CNS; strong/high doses) was “modest antidepressant effects; also recorded: weak stimulant effects”. The “duration of the sleep induced by barbital” value (mice [11]; strong/high doses) was “a reduction in the duration of the sleep induced by barbital”, the “hypothermia induced by apomorphine” value (mice [13]; strong doses) was “antagonism of the hypothermia induced by apomorphine” and the “immunostimulant activity, delayed hypersensitivity” value [19] was “statistically significant immunostimulant activity”. The “hypothermia induced by oxotremorine” value (mice [14]; strong/high doses) was “antagonism of the hypothermia induced by apomorphine and oxotremorine” and the “immunostimulant activity, PFC IgM test” value [18] was “statistically significant immunostimulant activity”.
In the case of `CCCC(C(=O)OCCN(CC)CC)(c1ccccc1)c1ccccc1` [Proadifen, reference compound], the spontaneous motility (male mice [20]) is reported as “induces hypomotility”, the “righting behaviour and stereotypies induced by apomorphine” value (male mice [21]; i.p., apomorphine 16 mg/kg s.c.) is reported as “Neither proadifen, nor CRL 41 152, nor their combination modify the righting behaviour” and the “body temperature, used alone” value (male mice [21]; proadifen 75 mg/kg i.p.) is reported as “important hypothermic effect”. For the same compound, the “hypothermia induced by apomorphine” value (male mice [21]; proadifen 75 mg/kg i.p., apomorphine 16 mg/kg s.c.) was “does not modify the hypothermia induced by apomorphine”.
